A short description of series [1]: cytotoxicity MTT assay in HMC3 cells. The class given is cell-based, human. Conditions: human, HMC3 microglial cells, MTT, 1–100 μM, 24 h. The procedure: (§1) Human HMC3 microglial (CRL-3304) and neuroblastoma BE(2)-M17 (CRL-2267) cells were obtained from American Type Culture Collection. BE(2)-M17 develops a better dopaminergic phenotype than SH-SY5Y when treated with retinoic acid to direct neuronal differentiation (Carvajal-Oliveros et al., [2022]). Cells were routinely maintained in Dulbecco's Modified Eagle Medium-Nutrient Mixture F12 (DMEM-F12) supplemented with 10% fetal bovine serum (FBS; Thermo Fisher Scientific, Waltham, MA, USA) in a 37°C incubator, with 95% relative humidity and 5% CO2 (NuAire, Plymouth, MN, USA).
(§2) To evaluate cytotoxicity of LM compounds and MPP^+, HMC3 (1 × 10^4) or BE(2)-M17 (2 × 10^4) cells were plated on 96-well dishes, grown for 20 h, and treated with LM compounds (1–100 μM) or MPP^+ [HMC3: 0–8 mM; BE(2)-M17: 0–5 mM]. Next day, 20 μl of tetrazolium dye 3-(4,5-dimethylthiazol-2-yl)-2,5-diphenyltetrazolium bromide (MTT, 5 mg/ml; Sigma-Aldrich) was added to the cells at 37°C for 3 h. The resulted insoluble purple formazan products were dissolved by lysis buffer (composition: 10% Triton X-100, 0.1 N HCl, 18% isopropanol). The absorbance of the dissolved product at optical density (OD) 570 nm was read by using a FLx800 fluorescence microplate spectrophotometer (Bio-Tek, Winooski, VT, USA). The half maximal inhibitory concentration (IC50) of LM compounds was determined through the construction of a dose-response curve. MPP^+ at 4 mM (HMC3 cell viability: 65%−69%) or 0.62 mM [BE(2)-M17 cell viability: 79%−84%] was selected to induce inflammation for further experiments.

Series [2] can be described thus: cytotoxicity MTT assay in BE(2)-M17 cells. Format: cell-based, human. Conditions: human, BE(2)-M17 neuroblastoma cells, MTT, 1–100 μM, 24 h. As for the experimental part:
as §1, §2
In general terms: Tetrazolium dyes change colour on reduction, which living cells bring about.

Series [3] in a line: DPPH free radical scavenging activity. Conditions: 10–160 μM, 30 min, room temperature. The procedure:
Stable 1,1-diphenyl-2-picrylhydrazyl (DPPH) radical in ethanol (100 μM; Sigma-Aldrich) was used to measure the antioxidant activity of these LM compounds. After addition of quercetin (positive control) or LM compound (10–160 μM), the mixture was vortexed for 15 s and incubated at room temperature for 30 min. Subsequently, the mixture was measured spectrophotometrically at 517 nm (Multiskan GO microplate spectrophotometer; Thermo Fisher Scientific). The free radical scavenging activity was calculated as the percentage of DPPH discoloration using the formula 1 – (absorbance of sample/absorbance of control) × 100%, with half maximal effective concentration (EC50) calculated using the interpolation method.

The nature of series [4]: oxygen radical antioxidant capacity (OxiSelect kit). The conditions noted are these: at 4–100 μM concentration. As for the experimental part: The test of oxygen radical antioxidant capacity (Ou et al., [2001]) was performed using OxiSelect™ kit (Cell Biolabs, San Diego, CA, USA). Briefly, trolox standards (2.5–50 μM) and LM compounds (4–100 μM) were prepared using a serial dilution in a mixture containing 50% acetone and 50% water. After adding fluorescein to blank (50% acetone/50% water), standards, or samples, the mixture was mixed and incubated at 37°C for 30 min. Subsequently, free radical initiator 2,2′-azobis(2-methylpropionamidine) dihydrochloride (AAPH) was added to generate peroxyl radicals (ROO•). The quenching of fluorescent probe over time was recorded at 480 nm excitation and 520 nm emission for 60 min (Bio-Tek FLx800). To quantify the oxygen radical absorbance capacity, the area under the curve (AUC) for blank, standard and samples were calculated. After subtraction of the blank, trolox equivalent (μM) of samples were determined using a calibration curve with trolox standards.

These results are taken from PMC11473416, “Coumarin-chalcone derivatives as dual NLRP1 and NLRP3 inflammasome inhibitors targeting oxidative stress and inflammation in neurotoxin-induced HMC3 and BE(2)-M17 cell models of Parkinson's disease” (Frontiers in Aging Neuroscience, 2024).

Some results are limits rather than exact numbers.

Broadly, the IC50 is the concentration at which inhibition is half-maximal. Read a high IC50 as weaker potency in that assay. As usually defined, the EC50 is the concentration at which the effect is half-maximal.

With `COc1ccccc1/C=C/C(=O)c1c(O)c2ccccc2oc1=O` [LM-009], the IC50 at 24 h in series [1] and in series [2] was greater than 100 µM throughout.

Regarding `O=c1c(O)c(-c2ccc(O)c(O)c2)oc2cc(O)cc(O)c12` [Quercetin, reference compound], the EC50 in series [3] was 21 µM. Further, in series [4], the “oxygen radical antioxidant capacity, trolox equivalent” value is 14 to 39 µM.
